From ChEMBL document CHEMBL1143561, “Virtual docking approaches to protein kinase B inhibition” (J Med Chem, 2005)

Target: RAC-alpha serine/threonine-protein kinase (Homo sapiens, UniProt P31749)
Assay: Inhibition of protein kinase B alpha (Akt1) in fluorescent enzymatic assay

Chain of RAC-alpha serine/threonine-protein kinase (P31749 whole entry): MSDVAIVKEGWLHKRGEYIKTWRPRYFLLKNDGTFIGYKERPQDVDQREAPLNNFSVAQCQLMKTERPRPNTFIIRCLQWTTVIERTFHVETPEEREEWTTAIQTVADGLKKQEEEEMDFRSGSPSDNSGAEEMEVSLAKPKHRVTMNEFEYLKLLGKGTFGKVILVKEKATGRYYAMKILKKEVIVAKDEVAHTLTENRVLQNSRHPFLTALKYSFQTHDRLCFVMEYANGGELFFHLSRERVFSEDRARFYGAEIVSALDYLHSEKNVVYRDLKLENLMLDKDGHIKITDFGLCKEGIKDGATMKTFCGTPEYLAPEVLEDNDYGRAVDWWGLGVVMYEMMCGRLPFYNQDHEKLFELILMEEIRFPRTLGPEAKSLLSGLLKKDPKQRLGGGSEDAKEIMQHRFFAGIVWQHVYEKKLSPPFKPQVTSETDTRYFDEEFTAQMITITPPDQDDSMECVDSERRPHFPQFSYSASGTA

Compound: CC1=C(C#N)c2nc(N)c(C#N)c(C)c2/C1=C/c1ccc(-c2cccc(C(=O)O)c2)o1
- IC50: 60.2 µM
